Experimental data as given in the supplement of paper PMC10307832.

Assays:
Test in all cases: relative viability (nuclei count vs DMSO), 5 days (fraction); higher = more cells survive
Fedratinib + OSI-027 = compound: Cc1cnc(Nc2ccc(OCCN3CCCC3)cc2)nc1Nc1cccc(S(=O)(=O)NC(C)(C)C)c1 [Fedratinib] + COc1cccc2cc(-c3nc([C@H]4CC[C@H](C(=O)O)CC4)n4ncnc(N)c34)[nH]c12 [OSI-027] (partner 0.5 µM)
Procedure, shortened: (§1)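 Lung cancer cell lines were pin-tool dosed in 1536-well plates on the day after seeding, with either a lone drug or a fixed anchor-drug dose plus five library-drug doses (not always all listed) in √10 steps. Nuclei were counted on 4× images after 5 days. Relative viability is the ratio of treated-well to vehicle-well nuclei counts, with each value a median of duplicate plates.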

Fedratinib + Luminespib = compound: Cc1cnc(Nc2ccc(OCCN3CCCC3)cc2)nc1Nc1cccc(S(=O)(=O)NC(C)(C)C)c1 [Fedratinib] + CCNC(=O)c1noc(-c2cc(C(C)C)c(O)cc2O)c1-c1ccc(CN2CCOCC2)cc1 [Luminespib] (partner 0.01 µM)
Procedure, shortened: as §1

GW-2580 + Pemetrexed = compound: COC1=CC=C(C=C1)COC2=C(C=C(C=C2)CC3=CN=C(N=C3N)N)OC [GW-2580] + Nc1nc2[nH]cc(CCc3ccc(C(=O)N[C@@H](CCC(=O)O)C(=O)O)cc3)c2c(=O)[nH]1 [Pemetrexed] (partner 0.2 µM)
Procedure, shortened: as §1

GW-2580 + Luminespib = compound: COC1=CC=C(C=C1)COC2=C(C=C(C=C2)CC3=CN=C(N=C3N)N)OC [GW-2580] + CCNC(=O)c1noc(-c2cc(C(C)C)c(O)cc2O)c1-c1ccc(CN2CCOCC2)cc1 [Luminespib] (partner 0.01 µM)
Procedure, shortened: as §1

Fedratinib + Lapatinib = compound: Cc1cnc(Nc2ccc(OCCN3CCCC3)cc2)nc1Nc1cccc(S(=O)(=O)NC(C)(C)C)c1 [Fedratinib] + CS(=O)(=O)CCNCc1ccc(-c2ccc3ncnc(Nc4ccc(OCc5cccc(F)c5)c(Cl)c4)c3c2)o1 [Lapatinib] (partner 2 µM)
Procedure, shortened: as §1

Row | Cell Line | relative viability (Fedratinib + OSI-027; first compound 0.1 µM) | relative viability (Fedratinib + OSI-027; first compound 0.3162 µM) | relative viability (Fedratinib + OSI-027; first compound 1 µM) | relative viability (Fedratinib + Luminespib; first compound 0.1 µM) | relative viability (Fedratinib + Luminespib; first compound 0.3162 µM) | relative viability (Fedratinib + Luminespib; first compound 1 µM) | relative viability (GW-2580 + Pemetrexed; first compound 0.08 µM) | relative viability (GW-2580 + Pemetrexed; first compound 0.8 µM) | relative viability (GW-2580 + Pemetrexed; first compound 2.53 µM) | relative viability (GW-2580 + Pemetrexed; first compound 8 µM) | relative viability (GW-2580 + Luminespib; first compound 0.08 µM) | relative viability (GW-2580 + Luminespib; first compound 0.8 µM) | relative viability (GW-2580 + Luminespib; first compound 2.53 µM) | relative viability (GW-2580 + Luminespib; first compound 8 µM) | relative viability (Fedratinib + Lapatinib; first compound 0.1 µM) | relative viability (Fedratinib + Lapatinib; first compound 0.3162 µM) | relative viability (Fedratinib + Lapatinib; first compound 1 µM)
1 | 201T | 0.698 | 0.613 | 0.588 | 1 | 1.06 | 1.02 | 0.371 | 0.351 | 0.329 | 0.346 | 1.04 | 1.04 | 1.08 | 0.988 | 1.01 | 0.944 | 0.976
2 | A549 | – | – | – | – | – | – | – | – | – | – | – | – | – | – | 1.16 | 0.907 | 0.875
3 | A-427 | 0.444 | 0.498 | 0.118 | 0.901 | 0.884 | 0.921 | 0.936 | 1.19 | 0.842 | 0.76 | 1.1 | 0.83 | 0.927 | 0.798 | 1.06 | 0.984 | 0.591
4 | ABC-1 | 0.607 | 0.467 | 0.448 | 0.415 | 0.655 | 0.607 | – | – | – | – | 0.637 | 0.505 | 0.391 | 0.518 | 1.28 | 1.16 | 1.46
5 | BEN | 0.267 | 0.297 | 0.27 | 0.312 | 0.248 | 0.263 | 1.91 | 0.762 | 0.615 | 0.702 | 0.353 | 0.332 | 0.29 | 0.264 | 0.665 | 0.585 | 0.543
6 | CAL-12T | 0.566 | 0.694 | 0.474 | 0.175 | 0.617 | 0.361 | 1.32 | 1.53 | 1.24 | 1.13 | 0.335 | 0.439 | 0.347 | 0.575 | 0.688 | 0.698 | 0.607
7 | COR-L23 | 0.741 | 0.714 | 0.596 | 0.816 | 0.671 | 0.602 | 0.197 | 0.196 | 0.205 | 0.194 | 0.875 | 0.774 | 0.828 | 0.808 | 1.04 | 0.999 | 1.07
8 | COR-L 105 | 0.633 | 0.649 | 0.497 | 0.753 | 0.743 | 0.78 | 1.26 | 1.08 | 1.21 | 0.962 | 0.63 | 0.588 | 0.681 | 0.647 | 0.297 | 0.379 | 0.336
9 | Calu-6 | – | – | – | – | – | – | – | – | – | – | – | – | – | – | 1.29 | 1 | 0.945
10 | ChaGo-K-1 | 0.431 | 0.577 | 0.504 | 0.61 | 0.548 | 0.561 | 0.274 | 0.256 | 0.267 | 0.262 | 0.757 | 0.677 | 0.501 | 0.562 | – | – | –
11 | EBC-1 | – | – | – | – | – | – | – | – | – | – | – | – | – | – | 0.175 | 0.193 | 0.177
12 | EKVX | 0.702 | 0.745 | 0.758 | 0.888 | 0.866 | 0.934 | 0.434 | 0.392 | 0.355 | 0.358 | 0.93 | 0.936 | 0.863 | 0.923 | 0.209 | 0.206 | 0.252
13 | EMC-BAC-2 | 0.323 | 0.387 | 0.351 | 1.27 | 1.12 | 1.18 | 0.503 | 0.43 | – | 0.502 | 1.27 | 1.3 | 1.17 | 1.11 | 1 | 0.901 | 0.909
14 | EPLC-272H | 0.276 | 0.289 | 0.114 | 0.208 | 0.167 | 0.205 | 0.325 | 0.283 | 0.342 | 0.329 | 0.274 | 0.204 | – | 0.243 | 0.958 | 1.01 | 0.119
15 | H3255 | 0.521 | 0.671 | 0.565 | 0.913 | 0.932 | 0.59 | 0.553 | 0.609 | 0.554 | 0.552 | 0.825 | 1.1 | 0.84 | 0.67 | 0.216 | 0.231 | 0.218
16 | HARA | 0.494 | 0.575 | 0.291 | 0.103 | 0.766 | 0.539 | 0.289 | 0.254 | 0.29 | 0.299 | 0.882 | 0.801 | 0.389 | 0.596 | 0.75 | 0.627 | 0.384
17 | HCC-15 | 0.499 | 0.705 | 0.576 | 0.114 | 0.247 | 0.381 | 0.228 | 0.235 | 0.235 | 0.251 | 0.308 | 0.296 | 0.436 | 0.521 | 0.879 | 0.876 | 0.446
18 | HCC-44 | 0.482 | 0.544 | 0.362 | 1.01 | 0.974 | 0.972 | 0.727 | 0.638 | 0.649 | 0.666 | 1.14 | 0.945 | 0.988 | 1.15 | 1.04 | 0.911 | 0.901
19 | HCC-78 | 0.366 | 0.381 | 0.362 | – | – | – | 0.972 | 0.939 | 0.909 | 0.948 | – | – | – | – | 0.929 | – | 0.609
20 | HCC-366 | 0.802 | 0.886 | 0.849 | – | – | – | 0.194 | 0.145 | 0.16 | 0.121 | – | – | – | – | 1.34 | 0.989 | 0.304
21 | HCC-827 | 0.817 | 0.812 | 0.915 | 0.436 | 0.698 | 0.492 | 0.242 | 0.259 | 0.236 | 0.276 | 0.92 | 0.762 | 0.508 | 0.56 | 0.187 | 0.181 | 0.22
